A short description of data set [1]: Water absorption (hygroscopicity): water weight gain of the solid. The format is physicochemical. To be noted: for Weight Gain relative to Reference (%): 1 millimole solid in open vial in 4 liter vessel with 100 milliliters exposed water, 18 hours, reference triphenylsulfonium camphorsulfonate; for Matter State After Exposure to Water: after 18 hours exposure to water vapour. Here is the method:
Compounds that absorb atmospheric moisture may cause inaccurate amount additions into formulations and are also difficult to handle. […] To quantify this characteristic, 1 millimole of each solid was placed in an open vial and enclosed in a 4 liter vessel containing 100 milliliters of exposed water. The weight of each vial was prerecorded and reweighed 18 hours later to determine the water weight gain.

The nature of data set [2]: Shelf life testing: compound stability in solution by 1H NMR peak integration. To be noted: 100 millimolar in deuterated dimethylsulfoxide; for Compound Purity (%) 0 days / Compound Purity (%) 3 days / Compound Purity (%) 14 days: 1H NMR at 25° C. Here is the method:
Compound stability was monitored by peak integration using ^1H NMR at 25° C. with relaxation delay set to 5 seconds on a 300 Megahertz Varian NMR spectrometer. Compound purity was calculated using the following formula: 100−((sum impurity peaks)/((total impurity peaks)+(total purity peaks))*100).

With “Triphenylsulfonium pentafluorophenolate [Example 1]”, in data set [1], the “Weight Gain relative to Reference (%)” value is listed as 29% and the “Matter State Before Exposure to Water” value is reported as “Solid”. In data set [2], the “Compound Purity (%) 0 days” value came to 100%, the “Compound Purity (%) 3 days” value amounted to 100% and the “Compound Purity (%) 14 days” value came to 100%. For the same compound, the “Compound stability (in words)” value in data set [2] (up to 14 days) is “substantially more stable than triphenylsulfonium phenolate”.

“5-Phenyl-5H-dibenzo[b,d]thiophen-5-ium 2,3,4,5,6-pentafluorophenolate [Example 2]”: in data set [1], the “Hygroscopicity (in words)” value is “hygroscopic”, the “Weight Gain relative to Reference (%)” value is given as 43%, the “Matter State After Exposure to Water” value was “Solid” and the “Matter State Before Exposure to Water” value was “Solid”.

Consider “5-Phenyl-5H-dibenzo[b,d]thiophen-5-ium 2,3,5,6-tetrafluorophenolate [Example 3]”, for which, in data set [1], the “Weight Gain relative to Reference (%)” value is on record as 29%, the “Matter State After Exposure to Water” value is “Solid” and the “Matter State Before Exposure to Water” value is recorded as “Solid”.

Turning to “5-(4-(tert-Butyl)phenyl)-5H-dibenzo[b,d]thiophen-5-ium 2,3,4,5,6-pentafluorophenolate [Example 5]”, in data set [1], the “Weight Gain relative to Reference (%)” value is −29%, the “Matter State After Exposure to Water” value is reported as “Solid” and the “Matter State Before Exposure to Water” value is on record as “Solid”.

Consider `Cc1cc(-[s+]2c3ccccc3c3ccccc32)cc(C)c1OCC(=O)OC1(C)C2CC3CC(C2)CC1C3.[O-]c1c(F)c(F)c(F)c(F)c1F` [Example 6, 5-(3,5-Dimethyl-4-(2-(((1R,3S,5r,7r)-2-methyladamantant-2-yl)oxy)-2-oxoethoxy)phenyl)-5H-dibenzo[b,d]thiophen-5-ium 2,3,4,5,6-pentafluorophenolate], for which, in data set [1], the “Weight Gain relative to Reference (%)” value was −43% and the “Matter State Before Exposure to Water” value is “Solid”.

For the compound “5-Phenyl-5H-dibenzo[b,d]thiophen-5-ium 3,5-bis(trifluoromethyl)-phenolate [Example 4]”, in data set [1], the “Weight Gain relative to Reference (%)” value is on record as −14%, the “Matter State After Exposure to Water” value is “Solid” and the “Matter State Before Exposure to Water” value is reported as “Solid”.

For “triphenylsulfonium camphorsulfonate [reference compound]”, in data set [1], the “Matter State After Exposure to Water” value is reported as “Solid” and the “Matter State Before Exposure to Water” value is recorded as “Solid”. In addition, in data set [2], the “Compound Purity (%) 0 days” value was found to be 100%, the “Compound Purity (%) 3 days” value was 100% and the “Compound Purity (%) 14 days” value stood at 100%.

Values taken from patent publication US20150346599A1, “PHOTO-DESTROYABLE QUENCHER AND ASSOCIATED PHOTORESIST COMPOSITION, AND DEVICE-FORMING METHOD” (Rohm and Haas Electronic Materials LLC, priority 2014, published 2015).
